These results are taken from patent US5089654A, “Chalcone derivatives” (Taisho Pharmaceutical Co., Ltd., priority 1989, dated 1992).

A value given as a limit tells only on which side of the number the result lay.

One assay relates to stress ulcer. The assay is described as follows: Stress Ulcer Inhibition Test. In kind it is in vivo, Male Wistar rats. Particulars: Rattus norvegicus, 7 h, oral, Wistar rats, read-out: Inhibition ratio (stress ulcer). As for the experimental part:
Experiment 1 Stress Ulcer Inhibition Test
(§1) The test drugs used were the compounds obtained in the foregoing Examples. Number in test drug column of Table 8 means a compound which is prepared in the correspondingly numbered Example.
Also, symbols A-E in test drug column of Table 8 mean the following compounds used as the control compounds.
The stress ulcer inhibition test was carried out according to a method of K. Takagi et al as described in Japan J. Pharmacol., vol. 18, page 9 (1968).
Male Wistar rats weighing 160 to 180 g (7 animals for each group), after a 24 hour-fast, were given orally the test drug (50 mg/kg and/or 100 mg/kg) suspended in 0.4% CMC, and placed in the stress cage made of a galvanized wire net, which was then immerged into the thermostatic water bath kept on 23° C. until the lower part of the sternum of the animals. Seven hours later, the animals were lapotomized to measure the area of the mucosa produced in the stomach, and the inhibition ration was calculated.

The test system of assay [1] is gastric lesions induced by 0.6 N hydrochloric acid. The assay is described as follows: Gastric Mucosal Protection Test (gastric lesions induced by 0.6 N hydrochloric acid). Format: in vivo, Male Wistar rats. Particulars: Rattus norvegicus, oral, Wistar rats, 0.6 N HCl, read-out: Inhibition ratio (lesion index, gastric mucosal protection). As for the experimental part: Experiment 2 Gastric Mucosal Protection Test
as §1
Also, symbols A-E in test drug column of Table 9 are as defined in Experiment 1.
The test of protection effect against the gastric lesions induced by 0.6 N hydrochloric acid (gastric mucosal protection effect) was carried out according to a method of A. Robert et al as described in Gastroenterology,vol. 77, pages 433-443 (1979).
Male Wistar rats weighing 180-210 g (7 animals for each group), after a 24 hour-fast, were given orally the test drug (50 mg/kg and/or 100 mg/kg) suspended in 0.4% CMC. After standing at room temperature for 2 hours, 0.6 N hydrochloric acid was given orally in a dose of 1 ml per rat. After standing at room temperature for a further one hour, rats were killed to measure the length of the gastric mucosal lesions induced in the stomachs, and total of the length was designated as the lesion index per rat.
The inhibition ratio (%) was calculated by comparison of the lesion index of the group treated with the test drug with the untreated group.

The next assay deals with gastric acid secretion. Put plainly: 2-DG-induced Acid Secretion Test, Gastric Lumen Perfused Rats. Format: in vivo. Particulars: intraperitoneal. As for the experimental part:
Experiment 3 2-DG-induced Acid Secretion Test Gastric Lumen Perfused Rats
The test was carried out according to the method of K. Watanabe et al in Eur. J. Pharmacology, vol. 90, page 11-17 (1983), and the inhibition ratio of gastric acid secretion of the test drug was calculated.
Number and symbol in test drug column are as defined above.
The test drug was given intraperitoneally.

With `CC(C)=CCOc1ccc(C(=O)/C=C/c2ccc(C(=O)O)cc2)c(OCC(=O)O)c1` [A, 4-carboxy-2'-carboxymethoxy-4'-(3-methyl-2-butenyloxy)chalcone, reference compound], the inhibition in vivo at 50 mg/kg (with stress ulcer; in assay [1]) was less than 10% throughout.
On to `CC(C)=CCOc1ccc(C(=O)/C=C/c2ccc(OCC(=O)O)cc2)c(OCC(=O)O)c1` [B, 2',4-bis(carboxymethoxy)-4'-(3-methyl-2-butenyloxy)chalcone, reference compound], for which the inhibition in vivo at 50 mg/kg (in the assay with stress ulcer; in assay [1]) was less than 10% throughout.
Regarding `CC(C)=CCOc1ccc(/C=C/C(=O)c2ccc(OCC=C(C)C)cc2OCC(=O)O)cc1` [C, 2'-carboxymethoxy-4,4'-bis(3-methyl-2-butenyloxy)chalcone, reference compound], the inhibition in vivo at 50 mg/kg (in the assay on stress ulcer; in assay [1]) was less than 10% throughout. Moreover, the “Inhibition ratio of gastric acid secretion” value in the assay on gastric acid secretion (200 mg/kg) amounted to 35.2%.
Consider `CC(C)=CCOc1ccc(C(=O)/C=C/c2ccc(C)cc2)c(OCC(=O)O)c1` [D, 2'-carboxymethoxy-4-methyl-4'-(3-methyl-2-butenyloxy)chalcone, reference compound], for which, in the assay on stress ulcer, the inhibition in vivo at 50 mg/kg is less than 10% and the inhibition in vivo at 100 mg/kg was determined as 26.2%. Besides, the inhibition in vivo at 50 mg/kg in assay [1] is less than 10%.
With `CCCc1ccc(/C=C/C(=O)c2ccc(OCC=C(C)C)cc2OCC(=O)O)cc1` [E, 2'-carboxymethoxy-4'-(3-methyl-2-butenyloxy)-4-n-propylchalcone, reference compound], the figures for the inhibition in vivo at 50 mg/kg (in the assay on stress ulcer; in assay [1]) were 33.7% and 24.8%, respectively. Further, the inhibition in vivo at 100 mg/kg in the assay on stress ulcer is 57.1%.
With `CCCCCCCc1ccc(/C=C/C(=O)c2ccc(OCC=C(C)C)cc2OCC(=O)OCC)cc1` [Example 18], in assay [1], the inhibition in vivo at 50 mg/kg amounted to 37.6% and the inhibition in vivo at 100 mg/kg was 53.8%.
As for `CCC(C)c1ccc(/C=C/C(=O)c2ccc(OCC=C(C)C)cc2OCC(=O)O)cc1` (centres unmarked) [Example 24], the inhibition in vivo at 50 mg/kg in the assay with stress ulcer was found to be 70.5%.
Regarding `CCCCc1ccc(/C=C/C(=O)c2ccc(OCC=C(C)C)cc2OCC(=O)O)cc1` [Example 25], in the assay on stress ulcer, the inhibition in vivo at 50 mg/kg came to 61% and the inhibition in vivo at 100 mg/kg stood at 63%.
Regarding `CCCCCc1ccc(/C=C/C(=O)c2ccc(OCC=C(C)C)cc2OCC(=O)O)cc1` [Example 27], the inhibition in vivo at 50 mg/kg in the assay on stress ulcer turned out to be 86.3%.
Same read-out and setting: the value for `CC(C)=CCOc1ccc(C(=O)/C=C/c2ccc(CCC(C)C)cc2)c(OCC(=O)O)c1` [Example 28] was 89%.
With `CCCCCCc1ccc(/C=C/C(=O)c2ccc(OCC=C(C)C)cc2OCC(=O)O)cc1` [Example 29, 2'-carboxymethoxy-4-n-hexyl-4'-(3-methyl-2-butenyloxy)chalcone], the inhibition in vivo at 50 mg/kg with stress ulcer turned out to be 67.3%; in assay [1], 81.2%. In addition, the inhibition in vivo at 100 mg/kg in assay [1] was 83.7%.
Consider `CCCCCCCc1ccc(/C=C/C(=O)c2ccc(OCC=C(C)C)cc2OCC(=O)O)cc1` [Example 30, 2'-carboxymethoxy-4-n-heptyl-4'-(3-methyl-2-butenyloxy)chalcone], for which the inhibition in vivo at 50 mg/kg in the assay with stress ulcer was 91.8%. In assay [1], the inhibition in vivo at 50 mg/kg worked out at 83.8% and the inhibition in vivo at 100 mg/kg was 94.4%.
`CCCCCCCCc1ccc(/C=C/C(=O)c2ccc(OCC=C(C)C)cc2OCC(=O)O)cc1` [Example 31]: the inhibition in vivo at 50 mg/kg in the assay on stress ulcer was determined as 77.2%.
Same read-out and setting: the value for `CCCCCCCCCCCCCCCc1ccccc1/C=C/C(=O)c1ccc(OCC=C(C)C)cc1OCC(=O)O` [Example 36] was 48.7%.
`CC(C)=CCOc1ccc(C(=O)/C=C/c2ccc(C(C)(C)C)cc2)c(OCC(=O)O)c1` [Example 44, 4-t-butyl-2'-carboxymethoxy-4'-(3-methyl-2-butenyloxy)chalcone]: the inhibition in vivo at 50 mg/kg is 76% in the assay on stress ulcer and 61.9% in assay [1]. Moreover, the inhibition in vivo at 100 mg/kg in the assay on stress ulcer came to 84.2%; in assay [1], 82.8%. The results for the “Inhibition ratio of gastric acid secretion” value in the assay with gastric acid secretion (30 mg/kg) and with gastric acid secretion (100 mg/kg) were 54.3% and 66.8%, respectively.
For the compound `CC(C)=CCOc1ccc(C(=O)/C=C/c2ccc(C(C)(C)C)cc2)c(OC(C)C(=O)O)c1` (centres unmarked) [Example 45, 4-(t-butyl)-2'-(1-carboxethoxy)-4'-(3-methyl-2-butenyloxy)chalcone], in the assay on stress ulcer, the inhibition in vivo at 50 mg/kg turned out to be 50.4%.
Take `CCCCCCc1ccc(/C=C/C(=O)c2ccc(OCC=C(C)C)cc2OC(C)C(=O)O)cc1` (centres unmarked) [Example 46]: the inhibition in vivo at 50 mg/kg in the assay on stress ulcer stood at 63%.
Turning to `CC(C)=CCOc1ccc(C(=O)/C=C/c2ccc(C(C)(C)C)cc2)c(OCCCC(=O)O)c1` [Example 48], the inhibition in vivo at 100 mg/kg in the assay on stress ulcer worked out at 72%.
Regarding `CCCCCC/C=C/c1ccc(/C=C/C(=O)c2ccc(OCC=C(C)C)cc2OCC(=O)O)cc1` [Example 49, 2'-carboxymethoxy-4'-(3-methyl-2-butenyloxy)-4-(1-(E)-octenyl)chalcone], in the assay with stress ulcer, the inhibition in vivo at 50 mg/kg is 76.6%.
For `CCCC/C=C/c1ccc(/C=C/C(=O)c2ccc(OCC=C(C)C)cc2OCC(=O)O)cc1` [Example 51], the inhibition in vivo at 50 mg/kg in the assay on stress ulcer worked out at 93.3%.
In the case of `CCCCC/C=C/c1ccc(/C=C/C(=O)c2ccc(OCC=C(C)C)cc2OCC(=O)O)cc1` [Example 52], the inhibition in vivo at 50 mg/kg in the assay with stress ulcer turned out to be 93.4%.
On the same count and under the same terms, the value for `C=CCCc1ccc(/C=C/C(=O)c2ccc(OCC=C(C)C)cc2OCC(=O)O)cc1` [Example 54] was 56.9%.
